In publication PMC7718890 (Scientific Reports, 2020):
pIC50: −log10 of the molar value. Where two headings read alike, the source gives them in different places.

Molecular target: CarD·RNAP binding (CarD association with RPo) (Mycobacterium tuberculosis, UniProt P9WGY7+P9WGY9+P9WJG3, D68C)
[1] = read-out: CarD-BODIPY-FL assay CCG sample IC50
[2] = read-out: CarD-BODIPY-FL assay Powder sample IC50

| Structure (SMILES) | pIC50 [1] | pIC50 [2] |
| --- | --- | --- |
| CC(=O)Nc1ccc(NC(=O)c2ccccc2C(=O)O)cn1 [CCG-52160] | 4.43 | 3.17 |
| NC(=O)c1ccc(CC(=O)c2ccc(Cl)cc2)cc1 [CCG-251660] | 3.97 | 4.43 |
| O=C(O)c1ccc(-c2nc3ccc(-c4ccc5nc(-c6ccc(C(=O)O)cc6)[nH]c5c4)cc3[nH]2)cc1 [CCG-249580] | 3.58 | 3.69 |
| Cc1cc2c(NC(=O)Nc3ccccc3)cccc2nn1 [CCG-237488] | 4.60 | – |
| CCC(=O)Nc1cccc2c(NC(=O)CC)cccc12 [CCG-53654] | 4.82 | 3.73 |
| CC(=O)c1sc2nsc(SCCN3CCCC3)c2c1N [CCG-239496] | 4.05 | 4.33 |
| CC(=O)Nc1ccc(NC(=O)c2nccnc2C(=O)O)cn1 [CCG-52573] | 4.11 | 3.80 |
| COC(=O)c1noc(C)c1C(=O)/C=C/N1CCCCC1 [CCG-42210] | 3.97 | 4.07 |
| CN(C)c1ncnc(Oc2ccc(Cl)cc2)c1[N+](=O)[O-] [CCG-247600] | 3.60 | 3.88 |
| O=C(NC(=O)N1CCCC1)C1CCN(c2cnc3ccccc3n2)CC1 [CCG-52363] | 4.22 | 3.70 |
